The test system of one series is Bovine brain tubulin. Briefly: Inhibition of tubulin polymerization (turbidimetric tubulin assembly). The settings on record: for IC50: 10 μM tubulin, 20 min incubation, 30° C.; for Inhibition of tubulin assembly (in words): comparable to CA1, CA4. The series is classed as biochemical. Here is the method:
Bovine brain tubulin was purified using methods previously described by Hamel (Cell Biochem. Biophys. 38:1-21 (2003)). The effect of compounds on tubulin assembly in vitro was determined by using a series of concentrations that were pre-incubated with 10 μM tubulin (1.0 mg/mL) in glutamate buffer at 30° C., followed by cooling to 0° C. After GTP was added, the samples were mixed and transferred to cuvettes at 0° C. in a recording spectrophotometer and warmed to 30° C. to initiate polymerization. Tubulin assembly was observed turbidimetrically at 350 nm. Tubulin disassembly was confirmed by cooling to 0° C. The calculated compound concentration that inhibited tubulin assembly by 50% after a 20 min incubation was defined as the IC50 value.

The subject of series [1] is human cancer cell lines. Description: Cytotoxicity against human cancer cell lines (SRB assay, whole panel). The series is classed as cell-based. To be noted: each cell line of Table 2.
Source text: (§1) Cancer cell lines were obtained from ATCC (DU-145 (prostate), SK-OV-3 (ovarian), and NCI-H460 (lung)) and maintained according to recommended conditions. Media was enriched with the recommended concentration of fetal bovine serum, as well as gentamicin and amphotericin B. The National Cancer Institute's standard SRB assay assessed cancer cell line growth inhibition, as previously described as the GI50, or the drug concentrations calculated to cause a 50% reduction in net protein increase relative to untreated cells (Vichai and Kirtikara, Nat. Protocols 1:1112-1116 (2006); Monks, et al., J. Natl. Cancer Inst. 83″757-766 (1991); Sites, et al., J. Nat. Prod. 71:313-320 (2008)). Results reported are averages of at least three separate experiments, each of which was carried out in triplicate.
Series [2] concerns SK-OV-3 (ovarian). Briefly: Sulforhodamine B (SRB) growth inhibition assay. To be noted: Homo sapiens.
Source text: as §1
Series [3] has as its system NCI-H460 (lung). Briefly: Sulforhodamine B (SRB) growth inhibition assay. The settings on record: for GI50: Homo sapiens, NCI-H460, read-out: Cytotoxicity (GI50) NCI-H460.
Source text: as §1
Series [4] deals with DU-145 (prostate). Description: Sulforhodamine B (SRB) growth inhibition assay. The settings on record: for GI50: Homo sapiens, DU-145, read-out: Cytotoxicity (GI50) DU-145.
Source text: as §1
The test system of series [5] is NCI-H460 (lung).
Source text: as §1
Series [6] relates to SK-OV-3 (ovarian).
Source text: as §1
Series [7] has as its system DU-145 (prostate).
Source text: as §1
Series [8] relates to human cancer cell lines. The settings on record: previous studies, U.S. Pat. No. 7,429,681; cited from earlier work.
[9] abbreviates: SK-OV-3, read-out: Cytotoxicity (GI50) SK-OV-3.

Like-named read-outs stand apart in the source and are kept apart here.

The values that follow come from patent publication US20120130129A1, “Efficient Method for Preparing Functionalized Benzosuberenes” (BAYLOR UNIVERSITY, priority 2010, published 2012).

`COc1ccc(/C=C\c2cc(OC)c(OC)c(OC)c2)c(O)c1O` [CA1, Combretastatin A-1, reference compound]: the midpoint of inhibition in the series with Bovine brain tubulin, the IC50, lay at 1900 nM.

For the compound `COc1cc(C2=CCCCc3c2ccc(OC)c3[N+](=O)[O-])cc(OC)c1OC` [Compound 5, 1-Nitro-2-Methoxy-5-(3′,4′,5′-trimethoxyphenyl)-6,7,8,9-tetrahydro-5H-cyclobenzohepta-6-ene], half-maximal inhibition in the series with Bovine brain tubulin (IC50) required 2500 nM. For the same compound, in the series on Bovine brain tubulin, the “Inhibition of tubulin assembly (in words)” value (from here on “Inhibition”) was “potent inhibitors of tubulin assembly”. Also, in the series with human cancer cell lines [1], the “Cytotoxicity compared with comparison compounds (in words)” value is listed as “significantly less cytotoxic than any of the comparison compounds”. For the same compound, the GI50 (usually the concentration giving 50% growth inhibition) came to 152 nM with SK-OV-3 (ovarian) [2] (setting [9]), 666 nM with NCI-H460 (lung) [3] and 211 nM in the series on DU-145 (prostate) [4].

In the case of `COc1ccc2c(c1N)CCCC=C2c1cc(OC)c(OC)c(OC)c1` [Compound 6, 2-Methoxy-5-(3′,4′,5′-trimethoxyphenyl)-6,7,8,9-tetrahydro-5H-cyclobenzohepta-6-ene-1-amine], in the series on Bovine brain tubulin, the IC50 (as a rule, the concentration needed to halve the response being measured) came to 1200 nM. Further, the “Inhibition” value in the series on Bovine brain tubulin was “potent inhibitors of tubulin assembly”. Also, in the series on human cancer cell lines [1], the “Cytotoxicity compared with comparison compounds (in words)” value was “more active against each cell line than the natural products CA4 and CA1”. For the same compound, the GI50 stood at 0.0329 nM in the series with SK-OV-3 (ovarian) [2] (setting [9]); 0.0329 nM with SK-OV-3 (ovarian) [2] (SK-OV-3, read-out: GI50 against ovarian cancer); 4.69 nM in the series on NCI-H460 (lung) [3]; 1.11 nM in the series with DU-145 (prostate) [4]. The “Cytotoxicity (in words)” value in the series with NCI-H460 (lung) [3] (non-small cell lung cell line) and in the series with DU-145 (prostate) [4] (prostate cell line) was “strongly cytotoxic” in each case.

With `COc1cc2c(c(O)c1O)CCCC=C2c1cc(OC)c(OC)c(OC)c1` [Compound 13, 3-Methoxy-5-(3′,4′,5′-trimethoxyphenyl)-6,7,8,9-tetrahydro-5H-cyclobenzohepta-6-ene-1,2-diol], the figures for the concentration for 50% growth inhibition (GI50) in the series with NCI-H460 (lung) [5], in the series with SK-OV-3 (ovarian) [6] and in the series with DU-145 (prostate) [7] were 20900 nM, 22700 nM and 20500 nM, respectively.

`COc1cc2c(c(OC)c1O)CCCC=C2c1cc(OC)c(OC)c(OC)c1` [Compound 16, 1,3-Dimethoxy-5-(3′,4′,5′-trimethoxyphenyl)-6,7,8,9-tetrahydro-5H-cyclobenzohepta-6-ene-2-ol]: the GI50 in the series with NCI-H460 (lung) [5] was found to be 18000 nM; with SK-OV-3 (ovarian) [6], 7130 nM; with DU-145 (prostate) [7] it was 15700 nM.

Turning to `COc1ccc2c(c1O)CCCC=C2c1cc(OC)c(OC)c(OC)c1` [Compound 23, 2-Methoxy-5-(3′,4′,5′-trimethoxyphenyl)-6,7,8,9-tetrahydro-5H-cyclobenzohepta-6-ene-1-ol], inhibition with Bovine brain tubulin was half-maximal at 1700 nM (IC50). Further, the “Inhibition” value in the series on Bovine brain tubulin is on record as “potent inhibitors of tubulin assembly”. In addition, the GI50 in the series on SK-OV-3 (ovarian) [2] (setting [9]) was 0.0242 nM; in the series on NCI-H460 (lung) [3], 0.00192 nM; in the series on DU-145 (prostate) [4], 0.00242 nM. Besides, the “Cytotoxicity against human cancer cell lines (in words)” value with human cancer cell lines [8] was “picomolar cytotoxicity”.

As for `COc1cc(C2=CCCCc3c2ccc(OC)c3OP(=O)(O)O)cc(OC)c1OC` [Compound 24, Disodium 2-Methoxy-5-(3′,4′,5′-trimethoxyphenyl)-6,7,8,9-tetrahydro-5H-cyclobenzohepta-6-ene-1-phosphate], the GI50 in the series on NCI-H460 (lung) [5] worked out at 26.6 nM; in the series on SK-OV-3 (ovarian) [6] it was 5.94 nM; in the series on DU-145 (prostate) [7], 9.66 nM.

For `COc1cc(C2=CCCCc3c2cc(OC)c(OC)c3O)cc(OC)c1OC` [Compound 36, 1-Hydroxy-2,3-dimethoxy-5-(3′,4′,5′-trimethoxyphenyl)-6,7,8,9-tetrahydro-5H-cyclobenzoheptan-5-ene], the figures for the concentration for 50% growth inhibition (GI50) in the series on NCI-H460 (lung) [5], in the series on SK-OV-3 (ovarian) [6] and with DU-145 (prostate) [7] were 25900 nM, 18100 nM and 16300 nM, respectively.

On to `COc1ccc2c(c1F)CCCC=C2c1cc(OC)c(OC)c(OC)c1` [Compound 41, 1-Fluoro-2-methoxy-5-(3′,4′,5′-trimethoxyphenyl)-6,7,8,9-tetrahydro-5H-cyclobenzoheptan-5-ene], for which the GI50 in the series with NCI-H460 (lung) [5] came out at 4 nM; in the series on SK-OV-3 (ovarian) [6] it was 0.00724 nM; with DU-145 (prostate) [7] it was 2.87 nM.

As for `COc1ccc2c(c1Cl)CCCC=C2c1cc(OC)c(OC)c(OC)c1` [Compound 46, 1-Chloro-2-methoxy-5-(3′,4′,5′-trimethoxyphenyl)-6,7,8,9-tetrahydro-5H-cyclobenzoheptan-5-ene], the results for the GI50 in the series with NCI-H460 (lung) [5], in the series on SK-OV-3 (ovarian) [6] and in the series on DU-145 (prostate) [7] were 83.2 nM, 39.9 nM and 108 nM, respectively.

For `COc1ccc2c(c1)CCCC=C2c1cc(OC)c(OC)c(OC)c1` [Compound 50, 2-Methoxy-5-(3′,4′,5′-trimethoxyphenyl)-6,7,8,9-tetrahydro-5H-cyclobenzoheptan-5-ene], the GI50 in the series on NCI-H460 (lung) [5] came out at 51 nM; with SK-OV-3 (ovarian) [6], 36.6 nM; in the series on DU-145 (prostate) [7], 26.1 nM.

Consider `COc1cc(C2=CCCCc3c2ccc(OC)c3OC)cc(OC)c1OC` [Compound 58, 1,2-Dimethoxy-5-(3′,4′,5′-trimethoxyphenyl)-6,7,8,9-tetrahydro-5H-cyclobenzohepta-6-ene], for which the GI50 in the series with NCI-H460 (lung) [5] worked out at 479 nM; in the series on SK-OV-3 (ovarian) [6], 641 nM; in the series with DU-145 (prostate) [7], 516 nM.

With `COc1cc(C2(O)CCCCc3c2ccc(O)c3O)cc(OC)c1OC` (stereo not shown) [Compound 63, 1,2-Dihydroxy-5-(3′,4′,5′-trimethoxyphenyl)-6,7,8,9-tetrahydro-5H-cyclobenzoheptan-5-ol], the GI50 in the series with NCI-H460 (lung) [5] was determined as 410 nM; with SK-OV-3 (ovarian) [6], 341 nM; in the series with DU-145 (prostate) [7], 783 nM.

Turning to `COc1cc(C2=CCCCc3ccccc32)cc(OC)c1OC` [Compound 65, 5-(3′,4′,5′-trimethoxyphenyl)-6,7,8,9-tetrahydro-5H-cyclobenzohepta-5-ene], the GI50 is 32500 nM in the series with NCI-H460 (lung) [5], 19100 nM in the series with SK-OV-3 (ovarian) [6] and 22000 nM in the series on DU-145 (prostate) [7].

`COc1cc(C2=CCCCc3c2ccc(OC)c3O)cc(OC)c1O` [Compound 71, 9-(4′-Hydroxy-3′,5′-dimethoxyphenyl)-3-methoxy-6,7-dihydro-5H-benzo[7]annulen-4-ol]: the GI50 in the series on SK-OV-3 (ovarian) [2] (setting [9]) is 378 nM; in the series with NCI-H460 (lung) [3] it was 439 nM; in the series on DU-145 (prostate) [4], 579 nM.
